#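 Compound exposure: 48 hours, 5 concentrations, 96-well plates. Abbreviation: GI50, concentration required for 50% inhibition of growth.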 Active and inactive are the calls of the source. No stated cut-off is given here; in the data, active = GI50 up to about 1.1 µM and inactive = higher.
# Assays:
# Test in all cases: NCI anticancer screen, dose series, 48 h
# 786-0 = system: 786-0
# A498 = system: A498
# A549 = system: A549
# BT-549 = system: BT-549
# CAKI-1 = system: CAKI-1
# CCRF-CEM = system: CCRF-CEM
# COLO 205 = system: COLO 205
# DU-145 = system: DU-145
# EKVX = system: EKVX
# HCC 2998 = system: HCC 2998
# HCT-116 = system: HCT-116
# HCT-15 = system: HCT-15
# HL-60 = system: HL-60
# HT-29 = system: HT-29
# Hs-578T = system: Hs-578T
# IGROV-1 = system: IGROV-1
# K562 = system: K562
# KM12 = system: KM12
# LOX IMVI = system: LOX IMVI
# M14 = system: M14
# MCF7 = system: MCF7
# MDA-MB-231 = system: MDA-MB-231
# MDA-MB-435 = system: MDA-MB-435
# MDA-N = system: MDA-N
# MOLT-4 = system: MOLT-4
# Malme-3M = system: Malme-3M
# NCI-H226 = system: NCI-H226
# NCI-H23 = system: NCI-H23
# NCI-H460 = system: NCI-H460
# NCI-H522 = system: NCI-H522
# NCI/ADR-RES = system: NCI/ADR-RES
# OVCAR-3 = system: OVCAR-3
# OVCAR-4 = system: OVCAR-4
# OVCAR-5 = system: OVCAR-5
# OVCAR-8 = system: OVCAR-8
# PC-3 = system: PC-3
# RPMI-8226 = system: RPMI-8226
# RXF 393 = system: RXF 393
# SF-268 = system: SF-268
# SF-539 = system: SF-539
# SK-MEL-28 = system: SK-MEL-28
# SK-MEL-2 = system: SK-MEL-2
# SK-MEL-5 = system: SK-MEL-5
# SK-OV-3 = system: SK-OV-3
# SN12C = system: SN12C
# SNB-19 = system: SNB-19
# SNB-75 = system: SNB-75
# SR = system: SR
# SW-620 = system: SW-620
# T47D = system: T47D
# TK-10 = system: TK-10
# U-251 = system: U-251
# UACC-257 = system: UACC-257
# UACC-62 = system: UACC-62
# UO-31 = system: UO-31
# ACHN = system: ACHN
# HOP-62 = system: HOP-62
# SF-295 = system: SF-295
structure (smiles),measurement,setting,value
CC1(C)N=[N+]([O-])C1(C)C,GI50,786-0,> 100 µM (inactive)
same,GI50,A498,> 100 µM (inactive)
same,GI50,A549,> 100 µM (inactive)
same,GI50,BT-549,> 100 µM (inactive)
same,GI50,CAKI-1,> 100 µM (inactive)
same,GI50,CCRF-CEM,> 100 µM (inactive)
same,GI50,COLO 205,> 100 µM (inactive)
same,GI50,DU-145,> 100 µM (inactive)
same,GI50,EKVX,> 100 µM (inactive)
same,GI50,HCC 2998,> 100 µM (inactive)
same,GI50,HCT-116,> 100 µM (inactive)
same,GI50,HCT-15,> 100 µM
same,GI50,HL-60,> 100 µM (inactive)
same,GI50,HT-29,> 100 µM (inactive)
same,GI50,Hs-578T,> 100 µM (inactive)
same,GI50,IGROV-1,> 100 µM (inactive)
same,GI50,K562,> 100 µM (inactive)
same,GI50,KM12,> 100 µM (inactive)
same,GI50,LOX IMVI,> 100 µM (inactive)
same,GI50,M14,> 100 µM (inactive)
same,GI50,MCF7,> 100 µM (inactive)
same,GI50,MDA-MB-231,> 100 µM (inactive)
same,GI50,MDA-MB-435,> 100 µM (inactive)
same,GI50,MDA-N,> 100 µM (inactive)
same,GI50,MOLT-4,> 100 µM (inactive)
same,GI50,Malme-3M,> 100 µM (inactive)
same,GI50,NCI-H226,> 100 µM (inactive)
same,GI50,NCI-H23,> 100 µM (inactive)
same,GI50,NCI-H460,> 100 µM (inactive)
same,GI50,NCI-H522,> 100 µM (inactive)
same,GI50,NCI/ADR-RES,> 100 µM (inactive)
same,GI50,OVCAR-3,> 100 µM (inactive)
same,GI50,OVCAR-4,> 100 µM (inactive)
same,GI50,OVCAR-5,> 100 µM (inactive)
same,GI50,OVCAR-8,> 100 µM (inactive)
same,GI50,PC-3,> 100 µM (inactive)
same,GI50,RPMI-8226,> 100 µM (inactive)
same,GI50,RXF 393,> 100 µM (inactive)
same,GI50,SF-268,> 100 µM (inactive)
same,GI50,SF-539,> 100 µM (inactive)
same,GI50,SK-MEL-28,> 100 µM (inactive)
same,GI50,SK-MEL-2,> 100 µM (inactive)
same,GI50,SK-MEL-5,> 100 µM (inactive)
same,GI50,SK-OV-3,> 100 µM (inactive)
same,GI50,SN12C,> 100 µM (inactive)
same,GI50,SNB-19,> 100 µM (inactive)
same,GI50,SNB-75,> 100 µM (inactive)
same,GI50,SR,> 100 µM (inactive)
same,GI50,SW-620,> 100 µM (inactive)
same,GI50,T47D,> 100 µM (inactive)
same,GI50,TK-10,> 100 µM (inactive)
same,GI50,U-251,> 100 µM (inactive)
same,GI50,UACC-257,> 100 µM (inactive)
same,GI50,UACC-62,> 100 µM (inactive)
same,GI50,UO-31,> 100 µM (inactive)
O=C(NNC(=S)NCc1ccccc1)C12CC3CC(CC(C3)C1)C2,GI50,786-0,96.8 µM (inactive)
same,GI50,A498,> 100 µM (inactive)
same,GI50,ACHN,54.7 µM (inactive)
same,GI50,BT-549,> 100 µM (inactive)
same,GI50,CCRF-CEM,24.3 µM (inactive)
same,GI50,COLO 205,20.4 µM (inactive)
same,GI50,DU-145,85.9 µM (inactive)
same,GI50,HCC 2998,69.8 µM (inactive)
same,GI50,HCT-116,34.5 µM (inactive)
same,GI50,HCT-15,53.3 µM
same,GI50,HL-60,22.4 µM (inactive)
same,GI50,HOP-62,75.2 µM (inactive)
same,GI50,HT-29,45.3 µM (inactive)
same,GI50,Hs-578T,> 100 µM (inactive)
same,GI50,IGROV-1,> 100 µM (inactive)
same,GI50,K562,55.5 µM (inactive)
same,GI50,KM12,40.6 µM (inactive)
same,GI50,LOX IMVI,35.4 µM (inactive)
same,GI50,M14,74.3 µM (inactive)
same,GI50,MCF7,61.4 µM (inactive)
same,GI50,MDA-MB-231,> 100 µM (inactive)
same,GI50,MDA-MB-435,87.3 µM (inactive)
same,GI50,MDA-N,67.9 µM (inactive)
same,GI50,MOLT-4,19.1 µM (inactive)
same,GI50,Malme-3M,> 100 µM (inactive)
same,GI50,NCI-H226,> 100 µM (inactive)
same,GI50,NCI-H23,74.6 µM (inactive)
same,GI50,NCI-H460,36.3 µM (inactive)
same,GI50,NCI-H522,> 100 µM (inactive)
same,GI50,NCI/ADR-RES,89.1 µM (inactive)
same,GI50,OVCAR-3,54.6 µM (inactive)
same,GI50,OVCAR-4,76.6 µM (inactive)
same,GI50,OVCAR-5,> 100 µM (inactive)
same,GI50,OVCAR-8,> 100 µM (inactive)
same,GI50,PC-3,25.8 µM (inactive)
same,GI50,RPMI-8226,45.1 µM (inactive)
same,GI50,RXF 393,89.1 µM (inactive)
same,GI50,SF-268,58.9 µM (inactive)
same,GI50,SF-295,34.4 µM (inactive)
same,GI50,SF-539,> 100 µM (inactive)
same,GI50,SK-MEL-28,67.6 µM (inactive)
same,GI50,SK-MEL-2,99.1 µM (inactive)
same,GI50,SK-OV-3,> 100 µM (inactive)
same,GI50,SN12C,> 100 µM (inactive)
same,GI50,SNB-19,> 100 µM (inactive)
same,GI50,SNB-75,49.4 µM (inactive)
same,GI50,SR,9.33 µM (inactive)
same,GI50,SW-620,48 µM (inactive)
same,GI50,T47D,49.2 µM (inactive)
same,GI50,TK-10,> 100 µM (inactive)
same,GI50,U-251,49.8 µM (inactive)
same,GI50,UACC-257,52.5 µM (inactive)
same,GI50,UACC-62,66.7 µM (inactive)
same,GI50,UO-31,50.1 µM (inactive)

# Source: ChEMBL document CHEMBL1201862, “PubChem BioAssay data set” (2004)
